In patent publication US8952024B2, “Herbicidal pyrimidone derivatives” (E I du Pont de Nemours and Company, priority 2009, dated 2015):

Legend:
Assay type in all cases: in vivo
[1] = system: wheat (Triticum aestivum); assay: Test B pre-/postemergence plant response; conditions: for Wheat plant response rating (0 to 100 scale): 0 is no effect, 13 to 15 days
Procedure, shortened: (§1)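 Visual ratings on a 0–100 scale (100 = complete control) were made versus untreated controls 13–15 days after treatment in a greenhouse. Compounds in surfactant-containing non-phytotoxic solvent were applied preemergence to seeds in loam–sand blend or postemergence to 1- to 4-leaf plants (2–18 cm).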

kochia (Kochia scoparia) = assay: Test B pre-/postemergence plant response; conditions: for Kochia plant response rating (0 to 100 scale): 0 is no effect, 13 to 15 days
Procedure, shortened: as §1

[2] = system: goosegrass (Eleusine indica); assay: Test B pre-/postemergence plant response; conditions: for Goosegrass plant response rating (0 to 100 scale): 0 is no effect, 13 to 15 days
Procedure, shortened: as §1

wild oat (Avena fatua) = assay: Test B pre-/postemergence plant response; conditions: for Oat, Wild plant response rating (0 to 100 scale): 0 is no effect, 13 to 15 days
Procedure, shortened: as §1

[3] = system: pigweed (Amaranthus retroflexus); assay: Test B pre-/postemergence plant response; conditions: for Pigweed plant response rating (0 to 100 scale): 0 is no effect, 13 to 15 days
Procedure, shortened: as §1

[4] = system: johnsongrass (Sorghum halepense); assay: Test B pre-/postemergence plant response; conditions: for Johnsongrass plant response rating (0 to 100 scale): 0 is no effect, 13 to 15 days
Procedure, shortened: as §1

soybean (Glycine max) = assay: Test B pre-/postemergence plant response; conditions: for Soybean plant response rating (0 to 100 scale): 62 g ai/ha, 0 is no effect, 13 to 15 days
Procedure, shortened: as §1

[5] = system: velvetleaf (Abutilon theophrasti); assay: Test B pre-/postemergence plant response; conditions: for Velvetleaf plant response rating (0 to 100 scale): 0 is no effect, 13 to 15 days
Procedure, shortened: as §1

[6] = system: cocklebur (Xanthium strumarium); assay: Test B pre-/postemergence plant response; conditions: for Cocklebur plant response rating (0 to 100 scale): 0 is no effect, 13 to 15 days
Procedure, shortened: as §1

[7] = system: ragweed (common ragweed, Ambrosia elatior); assay: Test B pre-/postemergence plant response; conditions: for Ragweed plant response rating (0 to 100 scale): 0 is no effect, 13 to 15 days
Procedure, shortened: as §1

[8] = system: windgrass (Apera spica-venti); assay: Test B postemergence plant response; conditions: for Windgrass plant response rating (0 to 100 scale): 62 g ai/ha, 0 is no effect, 13 to 15 days
Procedure, shortened: (§2)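 Plants at the 1- to 4-leaf stage (2 to 18 cm tall), grown in pots of peat moss/vermiculite medium with wetting agent and starter nutrients, received postemergence applications of test chemicals. After 13 to 15 days in a greenhouse, injury was rated visually against untreated controls on a 0 (no effect) to 100 (complete control) scale.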

[9] = system: chickweed (Stellaria media); assay: Test B postemergence plant response; conditions: for Chickweed plant response rating (0 to 100 scale): 62 g ai/ha, 0 is no effect, 13 to 15 days
Procedure, shortened: as §2

[10] = system: canarygrass (Phalaris minor); assay: Test B postemergence plant response; conditions: for Canarygrass plant response rating (0 to 100 scale): 62 g ai/ha, 0 is no effect, 13 to 15 days
Procedure, shortened: as §2

[11] = 31 g ai/ha, postemergence, scale 0 to 100, 0 is no effect, 100 is complete control
[12] = 62 g ai/ha, postemergence, 100 is complete control
[13] = Postemergence, 125 g ai/ha, visual rating after 13 to 15 days, scale 0 (no effect) to 100 (complete control)
[14] = Postemergence, 250 g ai/ha, scale 0 to 100 (0 no effect, 100 complete control)
[15] = Preemergence, 31 g ai/ha, scale 0 to 100 (0 no effect, 100 complete control)
[16] = Preemergence, 62 g ai/ha, scale 0 to 100 (0 no effect, 100 complete control)
[17] = Preemergence, 125 g ai/ha, scale 0 to 100, 0 no effect, 100 complete control
[18] = Preemergence, 250 g ai/ha, 0 to 100 scale
[19] = postemergence, 100 is complete control

CCCn1c(-c2cccs2)ncc(C(=O)C2=C(O)CCCC2=O)c1=O [Compound 77]
Plant response rating, Wheat [1, 11]: 0
Wheat plant response rating (0 to 100 scale) [1, 12]: 5
Plant response rating, Wheat [1, 13]: 10
Plant response rating, Wheat [1, 14]: 10
Plant response rating, Wheat [1, 15]: 0
Plant response rating, Wheat [1, 16]: 0
Plant response rating, Wheat [1, 17]: 0
Wheat plant response rating [1, 18]: 0
Plant response rating, Kochia (kochia (Kochia scoparia); [11]): 75
Kochia plant response rating (0 to 100 scale) (kochia (Kochia scoparia); [12]): 80
Plant response rating, Kochia (kochia (Kochia scoparia); [13]): 95
Plant response rating, Kochia (kochia (Kochia scoparia); [14]): 95
Plant response rating, Kochia (kochia (Kochia scoparia); [15]): 85
Plant response rating, Kochia (kochia (Kochia scoparia); [16]): 90
Plant response rating, Kochia (kochia (Kochia scoparia); [17]): 90
Kochia plant response rating (kochia (Kochia scoparia); [18]): 95
Plant response rating, Goosegrass [2, 11]: 65
Goosegrass plant response rating (0 to 100 scale) [2, 12]: 75
Plant response rating, Goosegrass [2, 13]: 75
Plant response rating, Goosegrass [2, 14]: 85
Plant response rating, Goosegrass [2, 15]: 55
Plant response rating, Goosegrass [2, 16]: 95
Plant response rating, Goosegrass [2, 17]: 98
Goosegrass plant response rating [2, 18]: 98
Plant response rating, Oat, Wild (wild oat (Avena fatua); [11]): 0
Oat, Wild plant response rating (0 to 100 scale) (wild oat (Avena fatua); [12]): 5
Plant response rating, Oat, Wild (wild oat (Avena fatua); [13]): 5
Plant response rating, Oat, Wild (wild oat (Avena fatua); [14]): 5
Plant response rating, Oat, Wild (wild oat (Avena fatua); [15]): 0
Plant response rating, Oat, Wild (wild oat (Avena fatua); [16]): 0
Plant response rating, Oat, Wild (wild oat (Avena fatua); [17]): 0
Oat, Wild plant response rating (wild oat (Avena fatua); [18]): 0
Plant response rating, Pigweed [3, 11]: 98
Pigweed plant response rating (0 to 100 scale) [3, 12]: 98
Plant response rating, Pigweed [3, 13]: 100
Plant response rating, Pigweed [3, 14]: 100
Plant response rating, Pigweed [3, 15]: 100
Plant response rating, Pigweed [3, 16]: 100
Plant response rating, Pigweed [3, 17]: 100
Pigweed plant response rating [3, 18]: 100
Plant response rating, Johnsongrass [4, 11]: 0
Johnsongrass plant response rating (0 to 100 scale) [4, 12]: 0
Plant response rating, Johnsongrass [4, 13]: 10
Plant response rating, Johnsongrass [4, 14]: 10
Plant response rating, Johnsongrass [4, 15]: 0
Plant response rating, Johnsongrass [4, 16]: 0
Plant response rating, Johnsongrass [4, 17]: 0
Johnsongrass plant response rating [4, 18]: 0
Plant response rating, Soybean (soybean (Glycine max); [11]): 25
Soybean plant response rating (0 to 100 scale) (soybean (Glycine max); [19]): 50
Plant response rating, Soybean (soybean (Glycine max); [13]): 70
Plant response rating, Soybean (soybean (Glycine max); [14]): 70
Plant response rating, Velvetleaf [5, 11]: 90
Velvetleaf plant response rating (0 to 100 scale) [5, 12]: 98
Plant response rating, Velvetleaf [5, 13]: 98
Plant response rating, Velvetleaf [5, 14]: 100
Plant response rating, Velvetleaf [5, 15]: 95
Plant response rating, Velvetleaf [5, 16]: 100
Plant response rating, Velvetleaf [5, 17]: 100
Velvetleaf plant response rating [5, 18]: 100
Plant response rating, Cocklebur [6, 11]: 0
Cocklebur plant response rating (0 to 100 scale) [6, 12]: 0
Plant response rating, Cocklebur [6, 13]: 60
Plant response rating, Cocklebur [6, 14]: 85
Plant response rating, Cocklebur [6, 15]: 0
Plant response rating, Cocklebur [6, 16]: 0
Plant response rating, Cocklebur [6, 17]: 10
Cocklebur plant response rating [6, 18]: 65
Plant response rating, Ragweed [7, 11]: 75
Ragweed plant response rating (0 to 100 scale) [7, 12]: 75
Plant response rating, Ragweed [7, 13]: 80
Plant response rating, Ragweed [7, 14]: 85
Plant response rating, Ragweed [7, 15]: 50
Plant response rating, Ragweed [7, 16]: 75
Plant response rating, Ragweed [7, 17]: 90
Ragweed plant response rating [7, 18]: 95
Plant response rating, Windgrass [8, 11]: 10
Windgrass plant response rating (0 to 100 scale) [8, 19]: 10
Plant response rating, Windgrass [8, 13]: 20
Plant response rating, Windgrass [8, 14]: 25
Plant response rating, Chickweed [9, 11]: 80
Chickweed plant response rating (0 to 100 scale) [9, 19]: 85
Plant response rating, Chickweed [9, 13]: 95
Plant response rating, Chickweed [9, 14]: 98
Plant response rating, Canarygrass [10, 11]: 0
Canarygrass plant response rating (0 to 100 scale) [10, 19]: 0
Plant response rating, Canarygrass [10, 13]: 0
Plant response rating, Canarygrass [10, 14]: 0

Cc1ccc(-c2ncc(C(=O)C3=C(O)CCCC3=O)c(=O)n2-c2ccccc2)cc1 [Compound 80]
Plant response rating, Wheat [1, 11]: 5
Wheat plant response rating (0 to 100 scale) [1, 12]: 10
Plant response rating, Wheat [1, 13]: 20
Plant response rating, Wheat [1, 14]: 35
Plant response rating, Kochia (kochia (Kochia scoparia); [11]): 0
Kochia plant response rating (0 to 100 scale) (kochia (Kochia scoparia); [12]): 20
Plant response rating, Kochia (kochia (Kochia scoparia); [13]): 20
Plant response rating, Kochia (kochia (Kochia scoparia); [14]): 60
Plant response rating, Goosegrass [2, 11]: 70
Goosegrass plant response rating (0 to 100 scale) [2, 12]: 75
Plant response rating, Goosegrass [2, 13]: 80
Plant response rating, Goosegrass [2, 14]: 85
Plant response rating, Oat, Wild (wild oat (Avena fatua); [11]): 20
Oat, Wild plant response rating (0 to 100 scale) (wild oat (Avena fatua); [12]): 30
Plant response rating, Oat, Wild (wild oat (Avena fatua); [13]): 40
Plant response rating, Oat, Wild (wild oat (Avena fatua); [14]): 50
Plant response rating, Pigweed [3, 11]: 100
Pigweed plant response rating (0 to 100 scale) [3, 12]: 100
Plant response rating, Pigweed [3, 13]: 100
Plant response rating, Pigweed [3, 14]: 100
Plant response rating, Johnsongrass [4, 11]: 0
Johnsongrass plant response rating (0 to 100 scale) [4, 12]: 0
Plant response rating, Johnsongrass [4, 13]: 10
Plant response rating, Johnsongrass [4, 14]: 45
Plant response rating, Soybean (soybean (Glycine max); [11]): 75
Soybean plant response rating (0 to 100 scale) (soybean (Glycine max); [19]): 80
Plant response rating, Soybean (soybean (Glycine max); [13]): 90
Plant response rating, Soybean (soybean (Glycine max); [14]): 95
Plant response rating, Velvetleaf [5, 11]: 85
Velvetleaf plant response rating (0 to 100 scale) [5, 12]: 100
Plant response rating, Velvetleaf [5, 13]: 100
Plant response rating, Velvetleaf [5, 14]: 100
Plant response rating, Cocklebur [6, 11]: 0
Cocklebur plant response rating (0 to 100 scale) [6, 12]: 10
Plant response rating, Cocklebur [6, 13]: 45
Plant response rating, Cocklebur [6, 14]: 65
Plant response rating, Ragweed [7, 11]: 50
Ragweed plant response rating (0 to 100 scale) [7, 12]: 60
Plant response rating, Ragweed [7, 13]: 65
Plant response rating, Ragweed [7, 14]: 75
Plant response rating, Windgrass [8, 11]: 50
Windgrass plant response rating (0 to 100 scale) [8, 19]: 60
Plant response rating, Windgrass [8, 13]: 70
Plant response rating, Windgrass [8, 14]: 80
Plant response rating, Chickweed [9, 11]: 90
Chickweed plant response rating (0 to 100 scale) [9, 19]: 98
Plant response rating, Chickweed [9, 13]: 100
Plant response rating, Chickweed [9, 14]: 100
Plant response rating, Canarygrass [10, 11]: 45
Canarygrass plant response rating (0 to 100 scale) [10, 19]: 50
Plant response rating, Canarygrass [10, 13]: 50
Plant response rating, Canarygrass [10, 14]: 70
